Blank lines part the entries; values can stand above or below the compound they belong to.
Assays:
Cytochrome P450 1A2 [1] = target: T1, Cytochrome P450 1A2 (Homo sapiens, UniProt P05177); experiment: Mechanism based inhibition of human cytochrome P450 1A2 measured by 7-ethoxyresorufin O-deethylation (EROD); assay type: ADME
T1 sequence (P05177 whole entry): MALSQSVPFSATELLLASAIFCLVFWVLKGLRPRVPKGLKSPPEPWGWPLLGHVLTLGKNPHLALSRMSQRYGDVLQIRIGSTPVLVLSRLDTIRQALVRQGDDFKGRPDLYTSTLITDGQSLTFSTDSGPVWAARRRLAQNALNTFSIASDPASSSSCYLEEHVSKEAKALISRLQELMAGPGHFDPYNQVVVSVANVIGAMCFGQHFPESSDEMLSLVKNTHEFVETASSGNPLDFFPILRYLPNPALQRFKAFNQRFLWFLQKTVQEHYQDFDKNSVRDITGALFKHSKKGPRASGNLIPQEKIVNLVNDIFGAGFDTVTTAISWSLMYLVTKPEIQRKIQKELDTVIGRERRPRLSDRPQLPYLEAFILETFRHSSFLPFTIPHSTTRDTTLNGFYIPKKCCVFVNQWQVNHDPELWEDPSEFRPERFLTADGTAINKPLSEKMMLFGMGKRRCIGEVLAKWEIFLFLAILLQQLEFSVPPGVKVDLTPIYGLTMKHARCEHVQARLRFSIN

Cytochrome P450 2B1 [2] = target: T2, Cytochrome P450 2B1 (Rattus norvegicus, UniProt P00176); experiment: (§1) Mechanism based inhibition of rat cytochrome P450 CYP2B1 measured by 7-ethoxycoumarin O-deethylase activity; assay type: ADME
T2 sequence (P00176 whole entry): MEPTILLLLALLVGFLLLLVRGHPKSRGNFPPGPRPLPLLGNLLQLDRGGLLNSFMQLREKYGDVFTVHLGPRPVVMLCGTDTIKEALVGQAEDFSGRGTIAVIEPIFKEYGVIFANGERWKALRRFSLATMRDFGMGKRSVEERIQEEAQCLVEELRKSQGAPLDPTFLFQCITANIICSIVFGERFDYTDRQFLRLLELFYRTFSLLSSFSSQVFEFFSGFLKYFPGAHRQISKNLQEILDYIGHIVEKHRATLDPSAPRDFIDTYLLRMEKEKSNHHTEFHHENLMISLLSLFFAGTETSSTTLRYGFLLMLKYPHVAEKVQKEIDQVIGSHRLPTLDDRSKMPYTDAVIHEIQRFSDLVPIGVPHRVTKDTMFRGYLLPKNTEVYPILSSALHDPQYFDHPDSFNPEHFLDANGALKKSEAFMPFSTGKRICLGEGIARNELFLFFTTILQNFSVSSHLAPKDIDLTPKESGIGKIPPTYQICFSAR

CYP2B1 [3] = target: T3, CYP2B1 (Rattus norvegicus, UniProt P00176); experiment: as §1; assay type: ADME; conditions: rat, probe 7-ethoxycoumarin (O-deethylase activity)
T3 sequence (P00176 whole entry): T2 sequence (P00176 whole entry)

Cytochrome P450 1A1 [4] = target: T4, Cytochrome P450 1A1 (Homo sapiens, UniProt P04798); experiment: Mechanism based inhibition of human cytochrome P450 1A1 measured by 7-ethoxyresorufin O-deethylation (EROD); assay type: ADME
T4 sequence (P04798 whole entry): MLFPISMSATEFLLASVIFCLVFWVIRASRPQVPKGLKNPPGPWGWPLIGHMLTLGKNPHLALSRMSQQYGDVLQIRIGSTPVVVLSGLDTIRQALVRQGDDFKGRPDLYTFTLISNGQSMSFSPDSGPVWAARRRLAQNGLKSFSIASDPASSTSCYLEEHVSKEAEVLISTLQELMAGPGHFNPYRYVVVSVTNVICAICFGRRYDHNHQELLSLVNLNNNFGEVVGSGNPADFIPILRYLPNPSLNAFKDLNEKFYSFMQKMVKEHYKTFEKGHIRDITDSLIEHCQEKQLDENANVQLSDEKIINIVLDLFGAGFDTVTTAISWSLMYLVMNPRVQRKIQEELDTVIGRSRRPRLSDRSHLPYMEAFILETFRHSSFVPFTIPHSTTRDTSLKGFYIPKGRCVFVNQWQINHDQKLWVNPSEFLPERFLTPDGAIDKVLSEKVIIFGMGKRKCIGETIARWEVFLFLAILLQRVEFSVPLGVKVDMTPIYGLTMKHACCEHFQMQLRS

Cytochrome P450 1B1 = target: T5, Cytochrome P450 1B1 (Homo sapiens, UniProt Q16678); experiment: Mechanism based inhibition of human cytochrome P450 1B1 measured by 7-ethoxyresorufin O-deethylation (EROD); assay type: ADME
T5 sequence (Q16678 whole entry): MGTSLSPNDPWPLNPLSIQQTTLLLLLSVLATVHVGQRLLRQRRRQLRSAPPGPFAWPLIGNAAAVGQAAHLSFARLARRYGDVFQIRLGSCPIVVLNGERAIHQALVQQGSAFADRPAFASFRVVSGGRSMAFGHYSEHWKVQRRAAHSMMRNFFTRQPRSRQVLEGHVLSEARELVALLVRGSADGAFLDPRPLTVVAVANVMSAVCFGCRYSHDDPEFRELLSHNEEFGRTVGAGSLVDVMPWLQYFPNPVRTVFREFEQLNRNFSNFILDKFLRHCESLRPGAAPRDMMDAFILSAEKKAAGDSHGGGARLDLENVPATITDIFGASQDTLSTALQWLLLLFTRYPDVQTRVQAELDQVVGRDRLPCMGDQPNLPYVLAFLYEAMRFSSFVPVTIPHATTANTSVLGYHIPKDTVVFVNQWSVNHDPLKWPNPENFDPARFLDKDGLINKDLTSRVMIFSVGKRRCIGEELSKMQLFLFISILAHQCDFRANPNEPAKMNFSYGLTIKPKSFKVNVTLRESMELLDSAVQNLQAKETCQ

Cytochrome P450 2B1 [5] = target: T2, Cytochrome P450 2B1; experiment: (§2) Mechanism based inhibition of rat cytochrome P450 CYP2B1; assay type: ADME
CYP2B1 [6] = target: T3, CYP2B1; experiment: as §2; assay type: ADME; conditions: rat
CYP2B4 = target: T6, CYP2B4 (Oryctolagus cuniculus, UniProt P00178); experiment: (§3) Mechanism based inhibition of rabbit cytochrome P450 CYP2B4; assay type: ADME; conditions: rabbit
T6 sequence (P00178 whole entry): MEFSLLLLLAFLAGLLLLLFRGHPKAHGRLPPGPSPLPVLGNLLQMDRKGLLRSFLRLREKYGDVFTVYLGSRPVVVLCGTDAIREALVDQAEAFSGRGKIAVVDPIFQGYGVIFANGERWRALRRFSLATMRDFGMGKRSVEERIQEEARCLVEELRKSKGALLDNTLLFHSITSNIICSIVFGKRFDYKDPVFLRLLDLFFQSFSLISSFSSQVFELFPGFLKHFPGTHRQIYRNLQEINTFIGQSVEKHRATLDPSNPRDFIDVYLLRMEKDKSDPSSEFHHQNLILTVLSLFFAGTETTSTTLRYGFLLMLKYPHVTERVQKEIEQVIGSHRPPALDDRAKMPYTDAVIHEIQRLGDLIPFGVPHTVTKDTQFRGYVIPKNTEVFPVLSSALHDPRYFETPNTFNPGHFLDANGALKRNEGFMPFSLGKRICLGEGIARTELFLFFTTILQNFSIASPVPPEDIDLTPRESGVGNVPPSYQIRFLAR

Cytochrome P450 2B4 = target: T7, Cytochrome P450 2B4 (Oryctolagus cuniculus, UniProt P00178); experiment: as §3; assay type: ADME
T7 sequence (P00178 whole entry): T6 sequence (P00178 whole entry)

Cytochrome P450 1A1 [7] = target: T8, Cytochrome P450 1A1 (Rattus norvegicus, UniProt P00185); experiment: (§4) Mechanism based inhibition of rat cytochrome P450 CYP1A1 measured by 7-ethoxyresorufin O-deethylation (EROD); assay type: ADME
T8 sequence (P00185 whole entry): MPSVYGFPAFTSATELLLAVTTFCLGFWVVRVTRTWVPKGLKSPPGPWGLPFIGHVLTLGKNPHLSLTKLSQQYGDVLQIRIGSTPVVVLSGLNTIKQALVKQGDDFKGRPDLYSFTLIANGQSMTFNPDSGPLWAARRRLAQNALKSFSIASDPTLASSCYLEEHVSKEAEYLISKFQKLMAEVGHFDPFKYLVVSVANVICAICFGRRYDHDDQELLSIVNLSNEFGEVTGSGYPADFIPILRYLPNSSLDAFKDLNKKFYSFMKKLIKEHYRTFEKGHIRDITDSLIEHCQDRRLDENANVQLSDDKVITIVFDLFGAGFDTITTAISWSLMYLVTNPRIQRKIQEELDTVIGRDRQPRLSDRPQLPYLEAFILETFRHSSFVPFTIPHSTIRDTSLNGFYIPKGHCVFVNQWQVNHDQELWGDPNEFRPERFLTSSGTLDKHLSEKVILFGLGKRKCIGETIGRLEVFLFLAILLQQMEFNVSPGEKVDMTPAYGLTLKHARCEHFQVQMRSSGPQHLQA

CYP1A1 = target: T9, CYP1A1 (Rattus norvegicus, UniProt P00185); experiment: as §4; assay type: ADME; conditions: rat, probe 7-ethoxyresorufin (O-deethylation, EROD)
T9 sequence (P00185 whole entry): T8 sequence (P00185 whole entry)

CYP1A2 = target: T10, CYP1A2 (Rattus norvegicus, UniProt P04799); experiment: (§5) Mechanism based inhibition of rat cytochrome P450 CYP1A2; assay type: ADME; conditions: rat
T10 sequence (P04799 whole entry): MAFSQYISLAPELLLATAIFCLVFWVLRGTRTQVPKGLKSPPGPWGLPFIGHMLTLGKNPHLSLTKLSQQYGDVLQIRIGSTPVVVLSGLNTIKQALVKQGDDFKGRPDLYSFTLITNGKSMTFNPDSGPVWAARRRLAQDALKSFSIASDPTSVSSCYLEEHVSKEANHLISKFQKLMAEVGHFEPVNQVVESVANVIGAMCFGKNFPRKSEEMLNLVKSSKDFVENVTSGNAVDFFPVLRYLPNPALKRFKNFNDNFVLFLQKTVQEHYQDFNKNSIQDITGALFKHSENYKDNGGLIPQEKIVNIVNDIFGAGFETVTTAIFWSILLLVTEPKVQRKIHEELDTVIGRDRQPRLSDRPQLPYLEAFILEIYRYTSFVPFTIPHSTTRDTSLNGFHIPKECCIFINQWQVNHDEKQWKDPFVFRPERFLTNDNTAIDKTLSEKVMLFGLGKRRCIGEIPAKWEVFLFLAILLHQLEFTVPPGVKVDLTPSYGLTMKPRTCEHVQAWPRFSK

Cytochrome P450 1A2 [8] = target: T11, Cytochrome P450 1A2 (Rattus norvegicus, UniProt P04799); experiment: as §5; assay type: ADME
T11 sequence (P04799 whole entry): T10 sequence (P04799 whole entry)

CYP2B11 [9] = target: T12, CYP2B11 (Canis lupus familiaris, UniProt P24460); experiment: (§6) Mechanism based inhibition of dog cytochrome P450 CYP2B11 measured by Diazepam N1-demethylation using recombinant enzyme; assay type: ADME; conditions: dog, recombinant CYP2B11, probe diazepam (N1-demethylation)
Cytochrome P450 2B11 [10] = target: T13, Cytochrome P450 2B11 (Canis lupus familiaris, UniProt P24460); experiment: as §6; assay type: ADME
Cytochrome P450 3A12 = Cytochrome P450 3A12 (Canis lupus familiaris, UniProt P24463); experiment: Mechanism based inhibition of dog cytochrome P450 CYP3A12; assay type: ADME
CYP2B11 [11] = target: T12, CYP2B11; experiment: (§7) Mechanism based inhibition of dog cytochrome P450 CYP2B11 measured by Diazepam N1-demethylation using liver microsomes; assay type: ADME, Microsome; conditions: dog, liver microsomes, probe diazepam (N1-demethylation)
Cytochrome P450 2B11 [12] = target: T13, Cytochrome P450 2B11; experiment: as §7; assay type: ADME, Microsome
CYP2E1 = CYP2E1 (Rattus norvegicus, UniProt P05182); experiment: (§8) Mechanism based inhibition of rat cytochrome P450 CYP2E1 measured by P-nitrophenol (PNP) hydroxylase activity; assay type: ADME; conditions: rat, probe p-nitrophenol (PNP hydroxylase activity)
Cytochrome P450 2E1 [13] = target: T14, Cytochrome P450 2E1 (Rattus norvegicus, UniProt P05182); experiment: as §8; assay type: ADME
Cytochrome P450 2E1 [14] = target: T14, Cytochrome P450 2E1; experiment: Mechanism based inhibition of rat cytochrome P450 CYP2E1; assay type: ADME
Cytochrome P450 2B10 = Cytochrome P450 2B10 (Mus musculus, UniProt P12791); experiment: Mechanism based inhibition of mouse cytochrome P450 CYP2B10; assay type: ADME
Sequence of Cytochrome P450 2B10 (P12791 whole entry): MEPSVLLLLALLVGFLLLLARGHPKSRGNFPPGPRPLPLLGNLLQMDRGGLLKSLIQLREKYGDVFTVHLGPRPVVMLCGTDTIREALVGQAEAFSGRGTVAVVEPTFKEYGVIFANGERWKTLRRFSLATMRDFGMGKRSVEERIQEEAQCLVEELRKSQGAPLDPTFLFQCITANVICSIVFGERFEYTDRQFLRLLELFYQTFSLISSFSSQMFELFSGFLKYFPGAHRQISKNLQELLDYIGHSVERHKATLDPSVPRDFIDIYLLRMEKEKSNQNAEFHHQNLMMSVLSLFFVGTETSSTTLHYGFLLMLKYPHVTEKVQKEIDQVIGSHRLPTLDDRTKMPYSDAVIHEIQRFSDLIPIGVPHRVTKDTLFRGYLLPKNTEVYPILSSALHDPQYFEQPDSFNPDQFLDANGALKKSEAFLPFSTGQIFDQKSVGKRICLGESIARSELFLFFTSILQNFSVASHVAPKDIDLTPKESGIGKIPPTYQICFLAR

T12 sequence (P24460 whole entry): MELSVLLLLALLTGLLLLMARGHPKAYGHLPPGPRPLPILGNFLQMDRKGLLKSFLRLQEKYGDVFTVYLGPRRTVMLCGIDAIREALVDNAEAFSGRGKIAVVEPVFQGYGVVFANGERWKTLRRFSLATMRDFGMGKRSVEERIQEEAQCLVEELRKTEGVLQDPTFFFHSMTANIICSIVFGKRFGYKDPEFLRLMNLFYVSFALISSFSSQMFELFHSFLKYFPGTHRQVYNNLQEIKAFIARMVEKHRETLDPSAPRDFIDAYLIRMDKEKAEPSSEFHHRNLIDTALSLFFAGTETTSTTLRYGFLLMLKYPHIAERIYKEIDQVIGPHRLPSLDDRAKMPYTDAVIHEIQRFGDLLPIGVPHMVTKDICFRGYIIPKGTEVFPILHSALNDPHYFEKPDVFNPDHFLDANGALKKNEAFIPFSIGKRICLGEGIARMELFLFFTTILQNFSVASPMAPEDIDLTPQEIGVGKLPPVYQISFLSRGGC
T13 sequence (P24460 whole entry): as above
T14 sequence (P05182 whole entry): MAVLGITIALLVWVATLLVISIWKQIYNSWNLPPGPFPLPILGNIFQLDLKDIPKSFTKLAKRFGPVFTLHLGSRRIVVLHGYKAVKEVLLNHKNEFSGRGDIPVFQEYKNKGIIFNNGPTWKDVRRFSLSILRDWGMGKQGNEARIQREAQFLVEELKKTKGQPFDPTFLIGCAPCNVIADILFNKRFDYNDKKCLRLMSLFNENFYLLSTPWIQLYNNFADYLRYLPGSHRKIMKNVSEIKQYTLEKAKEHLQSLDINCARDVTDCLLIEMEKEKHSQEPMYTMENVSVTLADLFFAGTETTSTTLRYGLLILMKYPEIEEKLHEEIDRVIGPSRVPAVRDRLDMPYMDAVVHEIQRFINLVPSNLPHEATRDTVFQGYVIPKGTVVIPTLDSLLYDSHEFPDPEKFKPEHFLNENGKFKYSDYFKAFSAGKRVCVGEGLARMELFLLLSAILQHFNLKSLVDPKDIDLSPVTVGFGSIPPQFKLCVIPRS
Sequence of Cytochrome P450 3A12 (P24463 whole entry): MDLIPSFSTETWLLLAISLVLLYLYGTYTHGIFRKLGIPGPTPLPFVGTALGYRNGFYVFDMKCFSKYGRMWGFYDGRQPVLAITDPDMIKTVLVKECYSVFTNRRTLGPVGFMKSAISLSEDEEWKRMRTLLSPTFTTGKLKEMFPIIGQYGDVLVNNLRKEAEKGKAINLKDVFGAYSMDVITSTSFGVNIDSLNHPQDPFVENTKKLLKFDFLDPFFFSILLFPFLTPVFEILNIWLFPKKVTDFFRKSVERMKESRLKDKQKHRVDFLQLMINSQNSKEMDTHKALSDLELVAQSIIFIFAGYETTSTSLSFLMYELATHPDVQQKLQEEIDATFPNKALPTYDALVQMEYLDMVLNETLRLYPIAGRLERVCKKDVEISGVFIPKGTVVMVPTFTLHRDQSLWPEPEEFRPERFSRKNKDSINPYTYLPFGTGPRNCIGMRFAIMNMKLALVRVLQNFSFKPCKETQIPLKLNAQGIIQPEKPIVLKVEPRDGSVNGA
Sequence of CYP2E1 (P05182 whole entry): as the sequence (P05182 whole entry) above

Ki (Cytochrome P450 2B1 [2]): 80 nM
kinact (CYP2B1 [3]): 0.0138 s⁻¹
Compound: C#Cc1ccc2ccccc2c1
mechanism based inhibition (Cytochrome P450 1A2 [1]): Cytochrome P450 mechanistic inhibitor: PMID 9760279
mechanism based inhibition (Cytochrome P450 1A1 [4]): Cytochrome P450 mechanistic inhibitor: PMID 9760279
mechanism based inhibition (Cytochrome P450 1B1): Cytochrome P450 mechanistic inhibitor: PMID 9760279

kinact (CYP2B11 [9]): 0.025 s⁻¹
Ki (Cytochrome P450 2B11 [10]): 350 nM
kinact (CYP2B11 [11]): 0.00933 s⁻¹
Ki (Cytochrome P450 2B11 [12]): 460 nM
Compound: CC(Nn1nnc2ccccc21)c1ccccc1 (centres undefined)
mechanism based inhibition (Cytochrome P450 3A12): Cytochrome P450 mechanistic inhibitor: PMID 15677349

kinact (CYP2E1): 0.00533 s⁻¹
Ki (Cytochrome P450 2E1 [13]): 188000 nM
Compound: C=CCS(=O)(=O)CC=C [DIALLYLSULFONE]
mechanism based inhibition (Cytochrome P450 2E1 [14]): Cytochrome P450 mechanistic inhibitor: PMID 9084912

Continued, compound first:

Compound: Cn1c2ccccc2c2ccccc21
Ki (Cytochrome P450 2B1 [5]): 5200 nM
kinact (CYP2B1 [6]): 0.0233 s⁻¹
kinact (CYP2B4): 0.0035 s⁻¹
Ki (Cytochrome P450 2B4): 23000 nM

Compound: CC#Cc1ccc2c(ccc3ccccc32)c1
mechanism based inhibition (Cytochrome P450 1A2 [1]): Cytochrome P450 mechanistic inhibitor: PMID 9760279
Ki (Cytochrome P450 1A1 [7]): 10 nM
kinact (CYP1A1): 0.005 s⁻¹
mechanism based inhibition (Cytochrome P450 1A1 [4]): Cytochrome P450 mechanistic inhibitor: PMID 9760279
kinact (CYP1A2): 0.005 s⁻¹
Ki (Cytochrome P450 1A2 [8]): 30 nM

Compound: Cc1c(N)c(C)c([N+](=O)[O-])c(C(C)(C)C)c1[N+](=O)[O-]
mechanism based inhibition (Cytochrome P450 2B10): Cytochrome P450 mechanistic inhibitor: PMID 9172959
